PubChem BioAssay (NCI)
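All cell lines were grown in 96-well plates and treated with compound for 48 hours. The concentration for 50% growth inhibition is given as GI50. At the TGI there is no net growth.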

Columns and labels:
Test in all cases: NCI-60 cell line screen, 48 h
HCT-15 colon = test system: HCT-15 colon
NCI-H460 lung = test system: NCI-H460 lung
TK-10 renal = test system: TK-10 renal
NCI-H522 lung = test system: NCI-H522 lung
SK-MEL-28 melanoma = test system: SK-MEL-28 melanoma
HL-60(TB) leukemia = test system: HL-60(TB) leukemia
U251 CNS = test system: U251 CNS
NCI-H226 lung = test system: NCI-H226 lung
SF-539 CNS = test system: SF-539 CNS
A498 renal = test system: A498 renal
UACC-257 melanoma = test system: UACC-257 melanoma
HS 578T breast = test system: HS 578T breast
PC-3 prostate = test system: PC-3 prostate
SK-MEL-5 melanoma = test system: SK-MEL-5 melanoma
COLO 205 colon = test system: COLO 205 colon
SK-MEL-2 melanoma = test system: SK-MEL-2 melanoma
SN12C renal = test system: SN12C renal
RXF 393 renal = test system: RXF 393 renal
HT29 colon = test system: HT29 colon
HOP-92 NSCLC = test system: HOP-92 NSCLC
SF-295 CNS = test system: SF-295 CNS
SW-620 colon = test system: SW-620 colon
RPMI-8226 leukemia = test system: RPMI-8226 leukemia
K-562 leukemia = test system: K-562 leukemia
MALME-3M melanoma = test system: MALME-3M melanoma
IGROV1 ovarian = test system: IGROV1 ovarian
SNB-19 CNS = test system: SNB-19 CNS
KM12 colon = test system: KM12 colon
MDA-MB-435 = test system: MDA-MB-435
HOP-62 NSCLC = test system: HOP-62 NSCLC
MDA-MB-231 breast = test system: MDA-MB-231 breast
UACC-62 melanoma = test system: UACC-62 melanoma
OVCAR-8 ovarian = test system: OVCAR-8 ovarian
MOLT-4 leukemia = test system: MOLT-4 leukemia
NCI-H23 lung = test system: NCI-H23 lung
M14 melanoma = test system: M14 melanoma
ACHN renal = test system: ACHN renal
T-47D breast = test system: T-47D breast
SK-OV-3 ovarian = test system: SK-OV-3 ovarian
BT-549 breast = test system: BT-549 breast
OVCAR-3 ovarian = test system: OVCAR-3 ovarian
OVCAR-4 ovarian = test system: OVCAR-4 ovarian
HCC-2998 colon = test system: HCC-2998 colon
NCI/ADR-RES ovarian = test system: NCI/ADR-RES ovarian
786-0 renal = test system: 786-0 renal
MCF7 breast = test system: MCF7 breast
LOX IMVI melanoma = test system: LOX IMVI melanoma
OVCAR-5 ovarian = test system: OVCAR-5 ovarian
SNB-75 CNS = test system: SNB-75 CNS
SR leukemia = test system: SR leukemia
UO-31 renal = test system: UO-31 renal
DU-145 prostate = test system: DU-145 prostate
HCT-116 colon = test system: HCT-116 colon
A549 NSCLC = test system: A549 NSCLC
CCRF-CEM leukemia = test system: CCRF-CEM leukemia
CAKI-1 renal = test system: CAKI-1 renal
SF-268 CNS = test system: SF-268 CNS

CCCCCCc1cc2cc(-c3nc4ccccc4[nH]3)c(=Nc3ccccc3C)oc2cc1O
GI50 (HCT-15 colon): 2.17 µM | TGI (HCT-15 colon): 5.34 µM | GI50 (NCI-H460 lung): 2.12 µM | TGI (NCI-H460 lung): 4.77 µM | GI50 (TK-10 renal): 2.27 µM | TGI (TK-10 renal): 4.48 µM | GI50 (NCI-H522 lung): 2.11 µM | TGI (NCI-H522 lung): 5.11 µM | GI50 (SK-MEL-28 melanoma): 1.88 µM | TGI (SK-MEL-28 melanoma): 3.73 µM | GI50 (HL-60(TB) leukemia): 2.13 µM | TGI (HL-60(TB) leukemia): 4.52 µM | GI50 (U251 CNS): 1.71 µM | TGI (U251 CNS): 3.3 µM | GI50 (NCI-H226 lung): 2.55 µM | TGI (NCI-H226 lung): 10.3 µM | GI50 (SF-539 CNS): 1.83 µM | TGI (SF-539 CNS): 3.75 µM | GI50 (A498 renal): 4.02 µM | TGI (A498 renal): 16.8 µM | GI50 (UACC-257 melanoma): 2.6 µM | TGI (UACC-257 melanoma): 7.01 µM | GI50 (HS 578T breast): 2.37 µM | TGI (HS 578T breast): 6.71 µM | GI50 (PC-3 prostate): 2.3 µM | TGI (PC-3 prostate): 7.98 µM | GI50 (SK-MEL-5 melanoma): 2 µM | TGI (SK-MEL-5 melanoma): 4.96 µM | GI50 (COLO 205 colon): > 100 µM | TGI (COLO 205 colon): > 100 µM | GI50 (SK-MEL-2 melanoma): 2.75 µM | TGI (SK-MEL-2 melanoma): 6.61 µM | GI50 (SN12C renal): 1.73 µM | TGI (SN12C renal): 4.1 µM | GI50 (RXF 393 renal): 1.85 µM | TGI (RXF 393 renal): 3.95 µM | GI50 (HT29 colon): > 100 µM | TGI (HT29 colon): > 100 µM | GI50 (HOP-92 NSCLC): 0.492 µM | TGI (HOP-92 NSCLC): 5.12 µM | GI50 (SF-295 CNS): 4.24 µM | TGI (SF-295 CNS): 17.8 µM | GI50 (SW-620 colon): 2.04 µM | TGI (SW-620 colon): 4.91 µM | GI50 (RPMI-8226 leukemia): 2.47 µM | TGI (RPMI-8226 leukemia): 7.86 µM | GI50 (K-562 leukemia): 3.1 µM | TGI (K-562 leukemia): 9.29 µM | GI50 (MALME-3M melanoma): 1.81 µM | TGI (MALME-3M melanoma): 3.62 µM | GI50 (IGROV1 ovarian): 2.07 µM | TGI (IGROV1 ovarian): 5.89 µM | GI50 (SNB-19 CNS): 3.58 µM | TGI (SNB-19 CNS): 22 µM | GI50 (KM12 colon): 3.27 µM | TGI (KM12 colon): 11.7 µM | GI50 (MDA-MB-435): 2.16 µM | TGI (MDA-MB-435): 5.05 µM | GI50 (HOP-62 NSCLC): 1.95 µM | TGI (HOP-62 NSCLC): 4.57 µM | GI50 (MDA-MB-231 breast): 2.37 µM | TGI (MDA-MB-231 breast): 6.4 µM | GI50 (UACC-62 melanoma): 1.62 µM | TGI (UACC-62 melanoma): 3.41 µM | GI50 (OVCAR-8 ovarian): 2.26 µM | TGI (OVCAR-8 ovarian): 6.05 µM | GI50 (MOLT-4 leukemia): 3.9 µM | TGI (MOLT-4 leukemia): 22.5 µM | GI50 (NCI-H23 lung): 2.46 µM | TGI (NCI-H23 lung): 5.87 µM | GI50 (M14 melanoma): 1.85 µM | TGI (M14 melanoma): 3.6 µM | GI50 (ACHN renal): 2.04 µM | TGI (ACHN renal): 5.24 µM | GI50 (T-47D breast): 2.12 µM | TGI (T-47D breast): 5.25 µM | GI50 (SK-OV-3 ovarian): 3.57 µM | TGI (SK-OV-3 ovarian): 13.7 µM | GI50 (BT-549 breast): 1.83 µM | TGI (BT-549 breast): 3.55 µM | GI50 (OVCAR-3 ovarian): 1.77 µM | TGI (OVCAR-3 ovarian): 3.28 µM | GI50 (OVCAR-4 ovarian): 1.69 µM | TGI (OVCAR-4 ovarian): 3.37 µM | GI50 (HCC-2998 colon): 22.2 µM | TGI (HCC-2998 colon): > 77.3 µM | GI50 (NCI/ADR-RES ovarian): 4.24 µM | TGI (NCI/ADR-RES ovarian): 22.7 µM | GI50 (786-0 renal): 1.88 µM | TGI (786-0 renal): 3.43 µM | GI50 (MCF7 breast): 2.24 µM | TGI (MCF7 breast): > 23.8 µM | GI50 (LOX IMVI melanoma): 1.87 µM | TGI (LOX IMVI melanoma): 3.74 µM | GI50 (OVCAR-5 ovarian): 3.64 µM | TGI (OVCAR-5 ovarian): 29 µM | GI50 (SNB-75 CNS): 1.41 µM | TGI (SNB-75 CNS): 3.49 µM | GI50 (SR leukemia): 1.86 µM | TGI (SR leukemia): 4.47 µM | GI50 (UO-31 renal): 1.64 µM | TGI (UO-31 renal): 4.49 µM | GI50 (DU-145 prostate): 2.96 µM | TGI (DU-145 prostate): 7.77 µM | GI50 (HCT-116 colon): 1.83 µM | TGI (HCT-116 colon): 3.63 µM | GI50 (A549 NSCLC): 2.44 µM | TGI (A549 NSCLC): 6.29 µM | GI50 (CCRF-CEM leukemia): 2.77 µM | TGI (CCRF-CEM leukemia): 9.59 µM | GI50 (CAKI-1 renal): 2.36 µM | TGI (CAKI-1 renal): 9.74 µM | GI50 (SF-268 CNS): 2.65 µM | TGI (SF-268 CNS): 8.45 µM
